# From paper PMC9944328 (Nature Communications, 2023)
# Where two headings read alike, the source gives them in different places.
# Assays:
# SSTR3 mutants [1] = target: SSTR3 mutants (Homo sapiens, UniProt P32745); test: SSTRs Gi-mediated cAMP inhibition, GloSensor, HEK293 (SSTR3 mutants); assay type: cell-based; parameters: Bottom / Top / Span / Top (best-fit): unit not given here; conditions: for Emax: HEK293; for LogEC50 (best-fit) / Top (best-fit): cAMP inhibition, SSTR3 N101V
# Procedure: (§1) The levels of the intracellular 3′, 5′-cyclic AMP (cAMP) were measured by the GloSensor cAMP assay (Promega) as described in the previous studies[28],[41] which has been widely used. The human full-length SSTRs and mutants were cloned into the pcDNA3.1+ vector with a HA signal sequence followed by a Flag tag at the N-terminus. […] Cells were then co-transfected with SSTR wild-type or mutants and GloSensor plasmids. After 24 h of transfection, the cells were dissociated with TrypLE™ Express Enzyme (1X) (Thermo Fisher Scientific) and collected by centrifugation at 500 × g for 5 min. Then the collected cells were suspended in Hank’s balanced salt solution [HBSS (Thermo Fisher Scientific)] supplemented with […] potassium salt solution (YEASEN), and then the suspension cells were seeded into 96-well plates with 90 μl/well. After incubating at room temperature for 40 min, 5 μM forskolin and ligands diluted in HBSS were added to each well and the plates were incubated at room temperature for 15 min. […] signals were measured using the Synergy H1 microplate reader (BioTek) and the data presented are means of at least three independent experiments.
# SSTR3 mutants [2] = target: T1, SSTR3 mutants (Homo sapiens, UniProt P32745, H192T); test: as above; assay type: cell-based; parameters: Bottom / Top / Span / Top (best-fit): unit not given here; conditions: for Emax: HEK293; for LogEC50 (best-fit) / Top (best-fit): cAMP inhibition, SSTR3 H192T
# T1 construct: The human full-length SSTRs and mutants were cloned into the pcDNA3.1+ vector; expressed in transfected cells; host or cells: HEK293 (ATCC, CRL-1573)
# T1 sequence (P32745 whole entry H192T): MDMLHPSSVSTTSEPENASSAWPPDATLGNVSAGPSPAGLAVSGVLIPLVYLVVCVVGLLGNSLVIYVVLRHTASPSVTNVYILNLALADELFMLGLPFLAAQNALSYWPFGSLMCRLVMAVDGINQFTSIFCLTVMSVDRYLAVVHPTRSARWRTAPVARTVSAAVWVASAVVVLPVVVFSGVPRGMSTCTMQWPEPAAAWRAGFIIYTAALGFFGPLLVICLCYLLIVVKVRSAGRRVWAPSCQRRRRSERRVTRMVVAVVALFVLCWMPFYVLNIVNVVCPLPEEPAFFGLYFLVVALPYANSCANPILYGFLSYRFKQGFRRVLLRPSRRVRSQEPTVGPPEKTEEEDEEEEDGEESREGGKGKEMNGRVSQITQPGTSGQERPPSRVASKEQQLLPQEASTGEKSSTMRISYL
# Procedure: as §1
# SSTR2 mutants [3] = target: SSTR2 mutants (Homo sapiens, UniProt P30874, Y312A)
# Sequence of SSTR2 mutants (Homo sapiens, UniProt P30874, Y312A) (P30874 whole entry Y312A): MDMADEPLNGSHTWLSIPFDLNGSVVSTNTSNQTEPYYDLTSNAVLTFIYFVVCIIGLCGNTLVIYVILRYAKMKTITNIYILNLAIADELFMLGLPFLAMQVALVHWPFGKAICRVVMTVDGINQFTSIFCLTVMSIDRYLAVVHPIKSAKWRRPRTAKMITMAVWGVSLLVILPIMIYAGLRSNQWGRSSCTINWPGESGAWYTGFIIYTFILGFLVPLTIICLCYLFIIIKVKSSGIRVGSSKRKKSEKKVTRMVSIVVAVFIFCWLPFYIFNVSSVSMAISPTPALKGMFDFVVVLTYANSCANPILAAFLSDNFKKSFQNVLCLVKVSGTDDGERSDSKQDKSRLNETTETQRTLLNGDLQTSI
# Procedure: (§2) Wild-type or mutant SSTR2, β-arrestin 1-Nluc and FYVE-mVenus were co-transfected in HEK293 cells at a ratio of 1:0.5:4 on six-well plates. The next day, the transfected cells were plated on white 96-well and incubated overnight, and then cells were incubated with 90 µL HBSS containing 20 mM HEPES and coelenterazine h (5 µM) at room temperature for 40 min. After incubation, ligand was added and the signal was measured using the Synergy H1 microplate reader (BioTek) to determine a BRET ratio.
# SSTR2 mutants [4] = target: SSTR2 mutants (Homo sapiens, UniProt P30874, R140A)
# Sequence of SSTR2 mutants (Homo sapiens, UniProt P30874, R140A) (P30874 whole entry R140A): as the sequence (P30874 whole entry Y312A) above, with R140A, A312Y counted along it
# Procedure: as §2
# Sequence of SSTR3 mutants (Homo sapiens, UniProt P32745) (P32745 whole entry N104V): as the sequence (P32745 whole entry H192T) above, with N104V, T192H counted along it
compound,measurement,setting,value
C[C@@H](O)[C@@H]1NC(=O)[C@H](CCCCN)NC(=O)[C@@H](Cc2c[nH]c3ccccc23)NC(=O)[C@H](Cc2ccccc2)NC(=O)[C@@H](NC(=O)[C@H](N)Cc2ccccc2)CSSC[C@@H](C(=O)N[C@H](CO)[C@@H](C)O)NC1=O [octreotide],Emax,SSTR3 mutants [1],120 ± 3.57%
same,LogEC50 (best-fit),SSTR3 mutants [1]; run 1,-8.602
same,Top (best-fit),SSTR3 mutants [1]; run 1,99.48
same,LogEC50 (best-fit),SSTR3 mutants [1]; run 2,-8.875
same,Top (best-fit),SSTR3 mutants [1]; run 2,120.3
same,LogEC50 (best-fit),SSTR3 mutants [1]; run 3,-8.73
same,Top (best-fit),SSTR3 mutants [1]; run 3,98.22
same,LogEC50 (best-fit),SSTR3 mutants [1]; run 4,-9.386
same,Top (best-fit),SSTR3 mutants [1]; run 4,101.4
same,EC50 of mutant versus wild-type,SSTR3 mutants [2]; H192(45.51)T mutant of SSTR3,retained a similar EC50 as wild-type receptor
same,Emax,"SSTR3 mutants [2]; Suppl. Tables 4/5, SSTR3 H192(45.51)T, n=3, read-out: Emax",92.4 ± 10.2%
same,LogEC50 (best-fit),SSTR3 mutants [2]; run 1,-7.081
same,Top (best-fit),SSTR3 mutants [2]; run 1,99.15
same,LogEC50 (best-fit),SSTR3 mutants [2]; run 2,-7.677
same,Top (best-fit),SSTR3 mutants [2]; run 2,107.4
same,LogEC50 (best-fit),SSTR3 mutants [2]; run 3,-7.174
same,Top (best-fit),SSTR3 mutants [2]; run 3,100.5
same,LogEC50 (best-fit),SSTR3 mutants [2]; run 4,-7.758
same,Top (best-fit),SSTR3 mutants [2]; run 4,101.2
same,Emax,SSTR2 mutants [3],45.6 ± 1.21%
same,Emax,SSTR2 mutants [4],48.4 ± 0.93%
N#Cc1cccc(-c2ccc3ncc(-c4cc(F)cc(F)c4)c(N4CCC(N)CC4)c3c2)c1O [paltusotine],Emax,SSTR3 mutants [1],90.7 ± 7.93%
same,Fold of WT,"SSTR3 mutants [1]; Suppl. Tables 4/5, SSTR3 N101(2.64)V",1.31
same,EC50,"SSTR3 mutants [1]; Suppl. Tables 4/5, SSTR3 N101(2.64)V, n=3",83.7 ± 1.31 nM
same,Bottom,"SSTR3 mutants [1]; best-fit, SSTR3 N101V-1",2.574
same,EC50,"SSTR3 mutants [1]; best-fit, SSTR3 N101V-1",85.3 nM
same,LogEC50,"SSTR3 mutants [1]; best-fit, SSTR3 N101V-1",-7.069
same,Span,"SSTR3 mutants [1]; best-fit, SSTR3 N101V-1",181.5
same,Bottom,"SSTR3 mutants [1]; best-fit, SSTR3 N101V-2",5.233
same,LogEC50,"SSTR3 mutants [1]; best-fit, SSTR3 N101V-2",-7.01
same,Span,"SSTR3 mutants [1]; best-fit, SSTR3 N101V-2",137.4
same,Bottom,"SSTR3 mutants [1]; best-fit, SSTR3 N101V-3",5.233
same,LogEC50,"SSTR3 mutants [1]; best-fit, SSTR3 N101V-3",-7.01
same,Span,"SSTR3 mutants [1]; best-fit, SSTR3 N101V-3",137.4
same,EC50,SSTR3 mutants [2],58.1 ± 1.43 nM
same,Emax,SSTR3 mutants [2],108 ± 8.99%
same,Fold of WT,"SSTR3 mutants [2]; Suppl. Tables 4/5, SSTR3 H192(45.51)T",0.91
same,Bottom,"SSTR3 mutants [2]; best-fit, SSTR3 H192T-1",14.85
same,LogEC50,"SSTR3 mutants [2]; best-fit, SSTR3 H192T-1",-7.173
same,Span,"SSTR3 mutants [2]; best-fit, SSTR3 H192T-1",475
same,Top,"SSTR3 mutants [2]; best-fit, SSTR3 H192T-1",489.8
same,EC50,"SSTR3 mutants [2]; best-fit, SSTR3 H192T-1, read-out: EC50",67.2 nM
same,Bottom,"SSTR3 mutants [2]; best-fit, SSTR3 H192T-2",37.09
same,LogEC50,"SSTR3 mutants [2]; best-fit, SSTR3 H192T-2",-7.251
same,Span,"SSTR3 mutants [2]; best-fit, SSTR3 H192T-2",569.9
same,Top,"SSTR3 mutants [2]; best-fit, SSTR3 H192T-2",607
same,EC50,"SSTR3 mutants [2]; best-fit, SSTR3 H192T-2, read-out: EC50",56 nM
same,Emax,SSTR2 mutants [3],41.3 ± 3%
same,Emax,SSTR2 mutants [4],50.9 ± 2.01%
